For ten compounds, Ki and Ratio results are on record in ChEMBL document CHEMBL1147509, “Pharmacology of the agonist binding sites of rat neuronal nicotinic receptor subtypes expressed in HEK 293 cells” (Bioorg Med Chem Lett, 2004).

In general, Ki refers to the dissociation constant of the complex between target and ligand, obtained from inhibition or displacement.

Experiment [1] addresses Neuronal acetylcholine receptor; alpha2/beta2 (Rattus norvegicus, UniProt P12389+P12390). As to the kind of experiment: Binding affinity towards rat nicotinic acetylcholine receptor alpha2-beta2 expressed in HEK293 cells using [3H]EB as radioligand. The format is cell-based.
A short description of experiment [2]: Binding affinity towards rat alpha2-beta4 nACh receptor expressed in HEK293 cells using [3H]EB as radioligand. It counts as cell-based.
Experiment [3] deals with Neuronal acetylcholine receptor. As to the kind of experiment: Binding affinity towards rat forebrain nicotinic acetylcholine receptor using [3H]EB as radioligand.
Experiment [4] addresses Neuronal acetylcholine receptor; alpha4/beta4 (Rattus norvegicus, UniProt P09483+P12392). As to the kind of experiment: Binding affinity towards rat Nicotinic acetylcholine receptor alpha4-beta4 expressed in HEK293 cells using [3H]EB as radioligand. It counts as cell-based.
For experiment [5], the target named is Neuronal acetylcholine receptor; alpha3/beta2 (Rattus norvegicus, UniProt P04757+P12390). The experiment in a line: Binding affinity towards rat Nicotinic acetylcholine receptor alpha3-beta2 expressed in HEK293 cells using [3H]EB as radioligand. It counts as cell-based.
Chain of Neuronal acetylcholine receptor; alpha3/beta2 (P04757 whole entry): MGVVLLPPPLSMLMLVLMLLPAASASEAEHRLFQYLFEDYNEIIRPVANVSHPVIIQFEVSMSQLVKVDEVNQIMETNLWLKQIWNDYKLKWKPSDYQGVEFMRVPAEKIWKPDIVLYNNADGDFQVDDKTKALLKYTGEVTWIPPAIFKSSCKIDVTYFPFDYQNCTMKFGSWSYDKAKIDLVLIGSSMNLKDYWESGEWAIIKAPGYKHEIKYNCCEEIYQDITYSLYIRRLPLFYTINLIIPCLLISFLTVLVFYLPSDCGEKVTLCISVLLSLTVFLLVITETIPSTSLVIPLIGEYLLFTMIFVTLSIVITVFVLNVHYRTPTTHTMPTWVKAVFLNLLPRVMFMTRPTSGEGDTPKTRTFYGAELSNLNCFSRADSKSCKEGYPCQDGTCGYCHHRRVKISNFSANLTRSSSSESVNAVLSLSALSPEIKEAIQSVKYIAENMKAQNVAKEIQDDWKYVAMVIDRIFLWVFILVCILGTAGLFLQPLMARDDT
Chain of Neuronal acetylcholine receptor; alpha3/beta2 (P12390 whole entry): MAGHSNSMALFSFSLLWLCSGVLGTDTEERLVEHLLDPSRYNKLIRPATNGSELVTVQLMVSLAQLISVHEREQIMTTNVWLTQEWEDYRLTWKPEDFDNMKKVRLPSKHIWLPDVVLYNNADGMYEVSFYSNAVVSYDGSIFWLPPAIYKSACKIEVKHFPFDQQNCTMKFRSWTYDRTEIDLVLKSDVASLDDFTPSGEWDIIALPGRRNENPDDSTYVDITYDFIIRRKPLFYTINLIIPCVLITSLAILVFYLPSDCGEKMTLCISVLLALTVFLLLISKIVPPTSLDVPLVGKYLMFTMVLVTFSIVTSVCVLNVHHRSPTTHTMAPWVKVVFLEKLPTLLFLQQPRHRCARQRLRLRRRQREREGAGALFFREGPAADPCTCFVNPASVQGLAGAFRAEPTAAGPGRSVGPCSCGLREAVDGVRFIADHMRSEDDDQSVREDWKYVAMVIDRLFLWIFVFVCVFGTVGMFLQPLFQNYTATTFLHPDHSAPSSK
The target in experiment [6] is Neuronal acetylcholine receptor; alpha4/beta2 (Rattus norvegicus, UniProt P09483+P12390). As to the kind of experiment: Binding affinity towards rat Nicotinic acetylcholine receptor alpha4-beta2 expressed in HEK293 cells using [3H]EB as radioligand. It counts as cell-based.
Chain of Neuronal acetylcholine receptor; alpha4/beta2 (P09483 whole entry): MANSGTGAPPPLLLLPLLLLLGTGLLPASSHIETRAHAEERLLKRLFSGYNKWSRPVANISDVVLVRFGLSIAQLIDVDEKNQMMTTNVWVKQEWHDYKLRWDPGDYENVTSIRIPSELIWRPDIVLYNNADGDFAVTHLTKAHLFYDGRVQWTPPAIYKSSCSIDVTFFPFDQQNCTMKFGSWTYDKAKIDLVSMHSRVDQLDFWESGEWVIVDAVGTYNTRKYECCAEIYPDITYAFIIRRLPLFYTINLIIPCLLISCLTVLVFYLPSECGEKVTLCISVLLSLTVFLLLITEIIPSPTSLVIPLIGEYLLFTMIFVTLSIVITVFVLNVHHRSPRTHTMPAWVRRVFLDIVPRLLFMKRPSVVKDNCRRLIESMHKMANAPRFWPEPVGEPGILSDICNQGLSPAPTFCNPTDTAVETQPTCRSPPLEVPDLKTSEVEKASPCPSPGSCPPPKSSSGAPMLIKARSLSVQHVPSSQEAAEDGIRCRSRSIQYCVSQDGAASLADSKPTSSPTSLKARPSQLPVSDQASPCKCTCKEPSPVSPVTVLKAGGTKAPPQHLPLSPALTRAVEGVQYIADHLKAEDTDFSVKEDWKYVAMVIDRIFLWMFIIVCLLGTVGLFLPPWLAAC
Chain of Neuronal acetylcholine receptor; alpha4/beta2 (P12390 whole entry): as the sequence (P12390 whole entry) above
Experiment [7] can be described thus: Ratio between the binding affinities towards rat alpha2-beta4 and alpha2-beta2 nACh receptor using [3H]-EB as radioligand.
Experiment [8] in a line: Ratio between the binding affinities towards rat alpha3-beta4 and forebrain nACh receptor using [3H]EB as radioligand.
Experiment [9] is described as follows: Ratio between the binding affinities towards rat alpha4-beta4 and alpha4-beta2 nACh receptor using [3H]EB as radioligand.
Experiment [10] is described as follows: Ratio between the binding affinities towards rat alpha3-beta4 and alpha3-beta2 nACh receptor using [3H]EB as radioligand.
In experiment [11] the target is Neuronal acetylcholine receptor; alpha3/beta4 (Rattus norvegicus, UniProt P04757+P12392). The experiment in a line: Binding affinity towards rat Nicotinic acetylcholine receptor alpha3-beta4 expressed in HEK293 cells using [3H]EB as radioligand. It counts as cell-based.
Chain of Neuronal acetylcholine receptor; alpha3/beta4 (P04757 whole entry): as the sequence (P04757 whole entry) above
Chain of Neuronal acetylcholine receptor; alpha3/beta4 (P12392 whole entry): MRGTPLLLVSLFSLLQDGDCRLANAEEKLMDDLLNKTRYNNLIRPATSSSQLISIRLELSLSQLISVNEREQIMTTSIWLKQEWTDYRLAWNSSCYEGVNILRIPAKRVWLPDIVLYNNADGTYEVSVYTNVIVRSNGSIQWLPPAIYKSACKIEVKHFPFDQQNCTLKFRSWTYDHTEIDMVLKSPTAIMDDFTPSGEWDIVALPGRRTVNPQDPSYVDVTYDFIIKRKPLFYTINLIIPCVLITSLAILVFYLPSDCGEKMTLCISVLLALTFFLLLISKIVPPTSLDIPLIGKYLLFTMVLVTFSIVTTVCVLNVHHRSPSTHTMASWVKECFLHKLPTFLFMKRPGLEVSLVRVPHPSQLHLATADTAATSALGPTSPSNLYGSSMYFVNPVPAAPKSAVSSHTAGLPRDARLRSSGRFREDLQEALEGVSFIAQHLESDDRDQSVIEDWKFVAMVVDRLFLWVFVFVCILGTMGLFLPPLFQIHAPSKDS

Chain of Neuronal acetylcholine receptor; alpha2/beta2 (P12389 whole entry): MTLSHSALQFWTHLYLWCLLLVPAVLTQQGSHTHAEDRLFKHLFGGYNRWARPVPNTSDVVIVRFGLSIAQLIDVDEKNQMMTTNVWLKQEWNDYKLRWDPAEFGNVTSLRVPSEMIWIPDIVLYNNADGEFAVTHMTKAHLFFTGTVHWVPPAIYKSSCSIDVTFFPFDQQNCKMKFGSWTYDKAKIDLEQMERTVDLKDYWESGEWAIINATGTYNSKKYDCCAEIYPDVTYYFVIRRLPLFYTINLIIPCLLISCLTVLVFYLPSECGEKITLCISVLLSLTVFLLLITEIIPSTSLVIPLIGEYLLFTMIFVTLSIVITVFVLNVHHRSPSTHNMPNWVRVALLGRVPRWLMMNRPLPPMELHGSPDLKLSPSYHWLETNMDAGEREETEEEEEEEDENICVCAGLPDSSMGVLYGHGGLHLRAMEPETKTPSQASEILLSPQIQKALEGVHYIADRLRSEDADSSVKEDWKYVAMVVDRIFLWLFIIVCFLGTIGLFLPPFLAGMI
Chain of Neuronal acetylcholine receptor; alpha2/beta2 (P12390 whole entry): as the sequence (P12390 whole entry) above
Chain of Neuronal acetylcholine receptor; alpha4/beta4 (P09483 whole entry): as the sequence (P09483 whole entry) above
Chain of Neuronal acetylcholine receptor; alpha4/beta4 (P12392 whole entry): as the sequence (P12392 whole entry) above

Regarding `CC(=O)OCC[N+](C)(C)C` [ACETYLCHOLINE], the Ki in experiment [1] is 11 nM; in experiment [2] it was 180 nM.
On to `O=c1cccc2n1C[C@@H]1CNC[C@H]2C1` [CYTISINICLINE], for which the Ki in experiment [1] worked out at 1.4 nM; in experiment [3], 2.5 nM; in experiment [4] it was 2.2 nM; in experiment [5], 37 nM; in experiment [6], 1.5 nM; in experiment [2], 5.5 nM. Also, the Ratio was determined as 4 in experiment [7], 84 in [8], 1 in experiment [9] and 6 in [10].
Take `C[N+]1(C)CCN(c2ccccc2)CC1` [DIMETHYLPHENYLPIPERAZINIUM IODIDE]: the Ki stood at 28 nM in [1], 42 nM in experiment [5], 800 nM in experiment [11] and 1300 nM in experiment [2].
On to `c1cncc(OC[C@@H]2CCN2)c1`, for which the Ki came to 0.074 nM in experiment [1]; 7.1 nM in experiment [4]; 0.24 nM in experiment [5]; 72 nM in experiment [11]; 0.14 nM in experiment [6]; 17 nM in experiment [2].
Turning to `Clc1ccc(C2CC3CCC2N3)cn1` (racemic; form 1) [EPIBATIDINE], affinity in experiment [2] was put at a Ki of 0.087 nM.
Same read-out and setting: then `Clc1ccc(C2CC3CCC2N3)cn1` (racemic; form 2) [EPIBATIDINE], with 0.13 nM.
As for `Ic1cncc(O[C@H]2CCN2)c1`, the Ki came to 0.031 nM in experiment [1]; 0.14 nM in [3]; 24 nM in [4]; 0.42 nM in experiment [5]; 290 nM in experiment [11]; 0.062 nM in [6]. The compound also registered a Ki in experiment [2] of 47 nM. Moreover, the Ratio worked out at 1520 in [7], 2070 in [8], 387 in experiment [9] and 690 in [10].
Consider `C[N+](C)(C)CCOC(N)=O` [CARBACHOL], for which the Ki in experiment [1] was determined as 210 nM; in experiment [4], 1300 nM; in experiment [5], 1100 nM; in experiment [11], 4800 nM; in experiment [6], 590 nM; in experiment [2] it was 640 nM.
`CN1CCC[C@H]1c1cccnc1` [NICOTINE] registered an inhibition constant Ki in [2] of 130 nM.
With `C[N+](C)(C)CCO` [CHOLINE], the Ki in experiment [1] was determined as 18000 nM; in [3], 42000 nM; in experiment [4] it was 34000 nM; in experiment [5], 37000 nM; in [11], 48000 nM; in [6] it was 37000 nM. The affinity in [2] corresponds to a Ki of 21000 nM. For the same compound, the Ratio in [7], in experiment [8], in [9] and in [10] was 1 in each case.
